Laboratory results reported in patent publication US11118109B2, “Organic luminogens” (THE HONG KONG UNIVERSITY OF SCIENCE AND TECHNOLOGY, priority 2017, dated 2021).

Key:
LogP (Table 1) = type: physicochemical
HeLa cells = test: Cell imaging of living HeLa cells by confocal microscopy, co-staining with MitoTracker Green FM and NucRed Live; type: cell-based; details: incubation 60 min at 37° C.
Experimental: For cell culturing, HeLa cells were cultured in MEM containing 10% FBS and antibiotics (100 units/mL penicillin and 100 µg/mL streptomycin) in a 5% CO2 humidity incubator at 37° C. All culture mediums supplemented with 10% heat-inactivated FBS, 100 units/mL penicillin and 100 µg/mL streptomycin. Before experiment, the cells were precultured until confluence was reached.
For cell imaging, HeLa cells were grown overnight on a 35 mm petri dish with a cover slip at 37° C. After the removal of the medium, the adherent cells were washed twice with 1× phosphate buffered saline (PBS) buffer. 4MOTPO were then added to the chamber. After incubation for 1 h, then washed and incubated with MitoTracker® Green FM and NucRed® Live for 10 min, followed by further washing three times with 1×PBS buffer. The cells were imaged on Zeiss laser scanning confocal microscope and analyzed using ZEN 2009 software.
4MOTPO was tested in living HeLa cells to test the efficacy of the compound as a biosensor for bioimaging. Cells were incubated with 4MOTPO for 60 min at 37° C. and then washed and incubated with MitoTracker® Green FM and NucRed® Live for 10 min, followed by further washing.

| logP (LogP (Table 1)) | Compound | subcellular localisation versus MitoTracker Green FM and NucRed Live (HeLa cells; co-staining 10 min) | fluorescence observed in cells (intracellular distribution) (HeLa cells; confocal microscopy) |
| --- | --- | --- | --- |
| 1.29 | COc1ccc(-c2oc(-c3ccccc3)[n+](-c3ccc(OC)cc3)c2-c2ccc(OC)cc2)cc1 [3MOTPO] | – | – |
| 1.02 | COc1ccc(-[n+]2c(-c3ccccc3)oc(-c3ccccc3)c2-c2ccccc2)cc1 [1MOTPO] | – | – |
| 1.35 | COc1ccc(-c2oc(-c3ccc(OC)cc3)[n+](-c3ccc(OC)cc3)c2-c2ccc(OC)cc2)cc1 [4MOTPO] | can accumulate in mitochondria | intense blue fluorescence was observed in the cellular cytoplasms |
